Values quoted from earlier work in patent publication US11311621B2, “Organosilicon compound microparticles and process for their preparation” (SILICIUM ESPAÑA LABORATORIOS, S.L., priority 2018, dated 2022).

Conditions: 21° C., without irreversible polymerization after 2 months

monomethylsilanetriol [MMST]
solubility of MMST in water without irreversible polymerization: up to 21 mM
solubility of MMST in water without irreversible polymerization (as silicon): ≤ 588 mg Si/L
